Assay results as given in article PMC5111108, “An insecticide resistance-breaking mosquitocide targeting inward rectifier potassium channels in vectors of Zika virus and malaria” (Scientific Reports, 2016).

Tests used:
[1] = molecular target: T1, Kir1.1 (Rattus norvegicus, UniProt P35560); experiment: Tl+ flux assay, mammalian Kir1.1; assay type: cell-based; conditions: read-out: inhibition of Kir1.1
T1 sequence (P35560 1-391): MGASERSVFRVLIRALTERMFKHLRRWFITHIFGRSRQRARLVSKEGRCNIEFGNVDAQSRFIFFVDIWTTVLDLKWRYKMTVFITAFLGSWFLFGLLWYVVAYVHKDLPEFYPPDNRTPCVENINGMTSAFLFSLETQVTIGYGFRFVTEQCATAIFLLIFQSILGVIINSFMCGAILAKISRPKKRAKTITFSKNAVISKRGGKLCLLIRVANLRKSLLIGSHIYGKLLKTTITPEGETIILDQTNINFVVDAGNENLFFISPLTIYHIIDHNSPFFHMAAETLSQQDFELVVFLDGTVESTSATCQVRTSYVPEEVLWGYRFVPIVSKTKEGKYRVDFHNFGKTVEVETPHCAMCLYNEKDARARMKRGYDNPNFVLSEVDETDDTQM

[2] = test system: honey bee, A. mellifera; experiment: Acute topical toxicity to adult honey bees; assay type: in vivo, Apis mellifera; conditions: 1 mg per bee topical, 48 h
Experimental: Frames of late-stage honey bee (A. mellifera) pupae were taken from four colonies at The Ohio State University Honey Bee Lab in Wooster, OH and maintained in a dark humid incubator at 34 °C (Darwin Chambers Co., St. Louis, MO, model H024) until adult bees emerged. New adults were brushed from frames daily and placed in wooden screen cages (21 × 14 × 12 cm) provisioned with 1:1 (w/w) sucrose in water.
Acute toxicity experiments in adult bees were performed as follows. Twenty-four hours after emergence, adult honey bees in cages were anaesthetized with carbon dioxide, divided into groups of approximately 20 bees and placed in plastic-coated paper cups (177 cm^3; UNIQ Paper Yogurt Cup, Frozen Dessert Supplies, Gilbert, AZ) covered with cotton cheesecloth. […] As a positive control, some bees were treated with 3 μl of bifenthrin (0.1 μg/μl); negative controls consisted of bees treated with 3 μl of solvent. Applications were made using a 20 μl micropipette (Fisherbrand Finnpipette F2, Fisher Scientific, Pittsburgh, PA) with disposable plastic tips. After treatment, bees were returned to the paper cups and provided with sugar syrup in punctured 1.5 ml microcentrifuge tubes. […] Bees showing no movement on inspection at 48 h after treatment were scored as dead.

[3] = molecular target: T2, Kir6.2/SUR1 (Homo sapiens, UniProt Q14654); experiment: Tl+ flux assay, mammalian Kir6.2/SUR1; assay type: cell-based
T2 construct: expressed in transfected cells
T2 sequence (Q14654 whole entry): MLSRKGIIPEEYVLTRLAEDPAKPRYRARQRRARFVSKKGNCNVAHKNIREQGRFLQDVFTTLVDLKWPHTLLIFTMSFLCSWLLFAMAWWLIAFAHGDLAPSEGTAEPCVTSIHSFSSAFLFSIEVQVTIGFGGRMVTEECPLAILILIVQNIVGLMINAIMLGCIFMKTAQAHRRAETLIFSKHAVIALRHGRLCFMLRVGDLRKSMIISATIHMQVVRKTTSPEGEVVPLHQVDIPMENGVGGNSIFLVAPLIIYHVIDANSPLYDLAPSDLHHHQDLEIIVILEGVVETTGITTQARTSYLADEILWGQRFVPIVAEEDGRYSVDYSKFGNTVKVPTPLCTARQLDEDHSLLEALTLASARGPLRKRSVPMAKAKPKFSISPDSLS
T2 sequence (Q09428 whole entry partner): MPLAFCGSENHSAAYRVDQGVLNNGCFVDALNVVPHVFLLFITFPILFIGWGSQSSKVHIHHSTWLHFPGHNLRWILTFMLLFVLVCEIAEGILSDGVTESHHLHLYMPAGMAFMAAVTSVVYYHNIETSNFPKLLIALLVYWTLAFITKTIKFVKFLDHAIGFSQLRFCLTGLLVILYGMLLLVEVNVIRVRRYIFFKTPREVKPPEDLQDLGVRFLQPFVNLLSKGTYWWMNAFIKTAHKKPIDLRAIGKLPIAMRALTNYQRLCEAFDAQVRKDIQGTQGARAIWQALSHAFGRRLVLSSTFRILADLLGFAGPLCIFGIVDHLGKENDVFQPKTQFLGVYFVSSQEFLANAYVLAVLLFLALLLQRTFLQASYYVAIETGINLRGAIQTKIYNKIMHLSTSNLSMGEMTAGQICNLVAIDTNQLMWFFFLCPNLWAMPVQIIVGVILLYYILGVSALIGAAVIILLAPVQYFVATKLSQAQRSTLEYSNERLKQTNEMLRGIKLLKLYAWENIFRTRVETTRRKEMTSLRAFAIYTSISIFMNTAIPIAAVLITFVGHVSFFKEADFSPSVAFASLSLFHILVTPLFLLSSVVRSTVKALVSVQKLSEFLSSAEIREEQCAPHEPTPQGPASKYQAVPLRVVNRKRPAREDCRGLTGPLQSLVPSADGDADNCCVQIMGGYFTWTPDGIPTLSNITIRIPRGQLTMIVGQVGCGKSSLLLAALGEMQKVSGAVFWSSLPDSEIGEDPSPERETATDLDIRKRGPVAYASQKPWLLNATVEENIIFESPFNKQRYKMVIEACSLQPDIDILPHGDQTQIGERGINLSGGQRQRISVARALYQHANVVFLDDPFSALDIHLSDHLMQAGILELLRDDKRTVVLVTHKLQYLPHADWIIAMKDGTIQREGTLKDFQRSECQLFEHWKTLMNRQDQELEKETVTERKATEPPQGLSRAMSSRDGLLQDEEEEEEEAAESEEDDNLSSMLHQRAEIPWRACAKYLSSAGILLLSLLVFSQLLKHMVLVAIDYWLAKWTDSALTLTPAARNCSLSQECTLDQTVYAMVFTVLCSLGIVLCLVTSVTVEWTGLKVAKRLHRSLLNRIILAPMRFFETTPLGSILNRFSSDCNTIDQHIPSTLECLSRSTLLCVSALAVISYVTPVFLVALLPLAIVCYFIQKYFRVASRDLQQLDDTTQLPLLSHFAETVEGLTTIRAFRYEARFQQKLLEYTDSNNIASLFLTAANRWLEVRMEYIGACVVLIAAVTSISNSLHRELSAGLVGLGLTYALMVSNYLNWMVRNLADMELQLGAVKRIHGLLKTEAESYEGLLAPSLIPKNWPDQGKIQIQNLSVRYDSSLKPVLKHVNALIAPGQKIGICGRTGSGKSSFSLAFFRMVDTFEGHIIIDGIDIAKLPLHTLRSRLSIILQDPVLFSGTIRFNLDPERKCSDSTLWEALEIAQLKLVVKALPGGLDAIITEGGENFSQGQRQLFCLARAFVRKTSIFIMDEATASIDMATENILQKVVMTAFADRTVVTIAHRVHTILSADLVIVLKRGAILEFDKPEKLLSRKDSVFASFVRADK

[4] = test system: An. gambiae; experiment: Fecundity (eggs laid) in An. gambiae; assay type: in vivo, Anopheles gambiae; conditions: VU041 ~1 μg/mg, VU937 ~10 μg/mg, topical within 1 h after engorgement, 72 h post blood feeding
Experimental: After treatment with the respective drugs, individual female mosquitoes were transferred to Drosophila vials (Fisher Scientific, Pittsburg, OA) containing 2 mL of water. The total number of eggs were counted 72-hours after being transferred to the vial. Any mosquitoes that died during this 72-hour period were excluded from the analysis. […] At least 25 female mosquitoes were used per replicate for each treatment group; each treatment was repeated on three separate broods, giving a total number of individuals studied ranging from 75–113 for each group.

[5] = test system: Ae. aegypti; experiment: Fecundity (eggs laid) in Ae. aegypti; assay type: in vivo, Aedes aegypti; conditions: 3.4 μg/mg mosquito, topical within 1 h after engorgement, 72 h post blood feeding
Experimental: The mosquitoes were returned to rearing conditions for 24 h after which they were transferred to individual egg laying tubes consisting of a glass tube 21 × 70 mm (Fisher Scientific, Pittsburg, PA) with a piece of coffee filter ([…] USA, Clearwater, FL) cut to fit the bottom of the tube. The filter was wetted with 150 μl of dH2O and the open end of the tube was plugged with a cotton ball. The mosquitoes in their individual egg laying tubes were returned to rearing conditions for an additional 48 h, and the number of eggs laid were counted. Any mosquitoes that died during the 72 h period after blood feeding were excluded from the analysis. Thirty female mosquitoes were used per replicate for each treatment group; each treatment was repeated on four separate broods, giving a total number of individuals studied ranging from 87-113 for each treatment group. For both species, the median number of eggs laid per mosquito was compared using a Kruskal-Wallis ANOVA with a Dunn's post-hoc analysis (Prism 6, Graphpad Software).

In the case of `O=C(Cn1nc(C(F)(F)F)c2c1CCCC2)N1CCCc2ccccc21` [VU041, 1-(3,4-dihydroquinolin-1(2H)-yl)-2-(3-(trifluoromethyl)-4,5,6,7-tetrahydro-1H-indazol-1-yl)ethan-1-one], the inhibition at 30 µM [1] was < 10%, the honey bees alive [2] was 91.3% and the inhibition at 30 µM [3] was < 10%. The “median number of eggs laid per mosquito vs control” value [4] was “significantly lower median number of eggs per mosquito” and the “median number of eggs laid per mosquito vs control” value [5] was “significantly lower median number of eggs per mosquito”.
